Values quoted from earlier work, collected in patent US20120172427A1, “(Z)-2-CYANO-3-HYDROXY-BUT-2-ENOIC ACID-(4'-TRIFLUOROMETHYLPHENYL)-AMIDE TABLET FORMULATIONS WITH IMPROVED STABILITY” (SANOFI, priority 2009, published 2012).

How the values were obtained:
[1] = molecular target: dihydroorotate dehydrogenase (Homo sapiens, UniProt Q02127); conditions: Bruneau et al., Biochem. J. 1998
[2] = system: immune cells and cell lines; conditions: wide variety of immune cells and cell lines; literature

Sequence of dihydroorotate dehydrogenase (Q02127 whole entry): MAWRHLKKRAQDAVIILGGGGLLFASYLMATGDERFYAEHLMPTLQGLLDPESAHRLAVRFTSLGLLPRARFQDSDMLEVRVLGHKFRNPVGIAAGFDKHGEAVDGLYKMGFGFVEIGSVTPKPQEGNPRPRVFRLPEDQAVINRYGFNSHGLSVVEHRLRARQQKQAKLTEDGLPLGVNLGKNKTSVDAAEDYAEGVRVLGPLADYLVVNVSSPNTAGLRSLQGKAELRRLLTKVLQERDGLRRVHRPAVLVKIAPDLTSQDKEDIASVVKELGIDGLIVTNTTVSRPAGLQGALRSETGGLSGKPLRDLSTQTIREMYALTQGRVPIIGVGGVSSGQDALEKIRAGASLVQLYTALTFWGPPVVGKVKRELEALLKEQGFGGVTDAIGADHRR

In the case of `C/C(O)=C(\C#N)C(=O)Nc1ccc(C(F)(F)F)cc1` [Teriflunomide, (Z)-2-cyano-3-hydroxy-but-2-enoic acid-(4′-trifluoromethylphenyl)-amide], the “inhibition of dihydroorotate dehydrogenase” value [1] is listed as “inhibits” and the antiproliferative effects [2] is listed as “antiproliferative effects”.
